Laboratory results: patent publication US5885824A, “Recombinant genomic clone encoding the histamine H2 receptor, methods for production thereof, and protein produced therefrom” (The Regents of the University of Michigan, priority 1993, dated 1999)
Entries after “also recorded” stand apart in the source; their conditions may differ.

Experiments:
[1] = molecular target: T1, canine histamine H2 receptor (Canis lupus familiaris, UniProt P17124); assay: cyclic AMP content of L-cells transfected with CMVneo vector containing the canine histamine H2 receptor gene insert; type: cell-based; details: for effect on cAMP content: doses as high as 10^-4 M, transfected L-cells
T1 construct: cloning of the entire gene encoding a histamine H2 receptor using cDNA derived from mRNA isolated from a canine gastric cell source; expressed in transfected cells; host or cells: mouse L-cells, permanently transfected (CMVneo vector, G418 selection)

[2] = molecular target: T1, canine histamine H2 receptor; assay: inhibition of [methyl-3H]-tiotidine binding to transformed L-cells; details: for inhibition of [methyl-3H]-tiotidine binding (in words): percent of maximal specific binding
Description: Transformed L-cells were plated and grown to confluence in 2.4×1.7 cm multi-well plates. The culture media was removed and cells were washed twice with Earle's balanced salt solution containing 0.1% bovine serum albumin. An aliquot (36 nCi) of [methyl-^3 H]-tiotidine (87 Ci/mmol; Dupont, Boston Mass.) was added to the culture in the presence of either cimetidine or diphenhydramine and after one hour of incubation, the medium was removed by aspiration. The cells were washed twice with 0.2M phosphate buffered NaCl pH 7.4, lysed with 1% Triton X-100, and the radioactivity was quantified. Maximum binding was determined by incubation of [methyl-^3H]-tiotidine with transformed L-cells in the absence of antagonists and non-specific binding, which was subtracted from total binding to obtain specific binding, was determined as the amount of label remaining bound in the presence of 10^-4 M histamine. The data, presented as percent of maximal specific binding, are from a single experiment and are virtually identical to data obtained in two other experiments.

T1 sequence (P17124 whole entry): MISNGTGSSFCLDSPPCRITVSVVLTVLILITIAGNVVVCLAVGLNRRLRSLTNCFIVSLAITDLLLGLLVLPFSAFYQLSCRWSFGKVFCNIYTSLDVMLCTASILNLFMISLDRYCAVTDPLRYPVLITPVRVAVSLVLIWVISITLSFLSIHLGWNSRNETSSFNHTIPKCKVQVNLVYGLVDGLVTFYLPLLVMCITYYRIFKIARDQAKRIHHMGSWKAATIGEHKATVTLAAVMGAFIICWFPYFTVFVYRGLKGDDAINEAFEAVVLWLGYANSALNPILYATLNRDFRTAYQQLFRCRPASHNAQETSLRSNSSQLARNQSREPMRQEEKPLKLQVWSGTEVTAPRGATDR

SMILES | effect on cAMP content [1] | inhibition of [methyl-3H]-tiotidine binding (in words) [2] | other results
CNC[C@H](O)c1ccc(O)c(O)c1 [epinephrine] | no effect | – | –
CN/C(=N/CCSCc1nc[nH]c1C)NC#N [cimetidine] | – | dose-dependently inhibited label binding | effect on histamine cAMP dose-response curve ([1]; 60 min pre-incubation with cimetidine (10^-4 M)): shifted to the right; IC50 ([2]; one hour of incubation, mean±se n=4, read-out: ED50 for displacement of [methyl-3H]-tiotidine binding): 550 nM
CN(C)CCOC(c1ccccc1)c1ccccc1 [diphenhydramine] | – | inhibited binding only at the very highest dose; also recorded: no ability to inhibit [methyl-^3 H]-tiotidine except with the highest dose | –
NCCc1c[nH]c2ccc(O)cc12 [Serotonin] | no effect | – | –
NCCc1c[nH]cn1 [histamine] | – | – | activation at 10 µM ([1]; 1 h, read-out: maximum increase in cellular cyclic AMP content): 217 ± 10%
NCCc1ccc(O)c(O)c1 [dopamine] | no effect | – | –
